From ChEMBL document CHEMBL1201862, “PubChem BioAssay data set” (2004) come the findings set out here.

Where “and” joins values, the source holds several entries; their conditions need not be identical. Equal values may be shown once.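 1) Cells in 96-well plates. 2) Compound, 48 h, 5 concentrations. 3) Linear interpolation between surrounding doses. 4) Unreached endpoint = highest concentration. The concentration for 50% growth inhibition is given as GI50.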 Calls of active or inactive are those of the source. No stated cut-off is given here; in the data, active = GI50 up to about 1.1 µM and inactive = higher. *1 amine or outer side, *2 acyl side, *3 side chain or, on linkers, in order; H or OH if unused. Where a SMILES comes first, the peptide text is derived from it. Bridges are numbered along the chain shown (N, C = ends). Roman numbers before positions name the chains, in order. [ ]: non-standard residue; d: D form. Actinocin(9to1) = Cc1c2oc3c(C)ccc(C(=O)[*:1])c3nc-2c(C(=O)[*:2])c(N)c1=O; NMeV = CN[CH](C(=O)O)C(C)C; Sar = CNCC(=O)O

Test in all cases: inhibition of tumour cell growth, NCI panel, 48 h
The subject of assay [1] is MCF7.
Assay [2] has as its system NCI/ADR-RES.
For assay [3], the system named is DMS-273.
The subject of assay [4] is HOP-18.
For assay [5], the system named is KM-20L2.
The test system of assay [6] is LXFL 529.
The subject of assay [7] is SNB-78.
Assay [8] has as its system XF498.

As for `Cc1ccc(C2(O)c3ccccc3C(=O)N(C)C2(O)c2ccc(C)cc2)cc1` (configuration not stated), the GI50 was 38.9 µM (inactive) in assay [1] and 39.4 µM (inactive) in assay [2].

In the case of `COc1ccc(CC2COc3cc(O)cc(O)c3C2=O)cc1O` (configuration not stated), the GI50 is 6.21 µM (inactive) in assay [1] and 2.64 µM (inactive) in assay [2].

With `COc1ccc2c(c1)-c1oc3ccccc3c(=O)c1CO2`, the GI50 was 36.9 µM (inactive) in assay [1] and 29.4 µM (inactive) in assay [2].

For `O=Cc1cc(O)ccc1Br`, the figures for the GI50 in assay [1] and in assay [2] were 4.41 µM (inactive) and 12.1 µM (inactive), respectively.

Turning to `Clc1ccc(CCn2ccc3ccccc32)c(Cl)c1`, the GI50 in assay [1] and in assay [2] was > 100 µM (inactive) in each case.

As to `CC1OC1C(=O)P(=O)(O)O` (configuration not stated), the GI50 in assay [1] and in assay [2] was > 100 µM (inactive) each time.

For the compound `CN(C)N1C(=O)C(=O)N(c2cccc3ccccc23)C1=O`, the GI50 in assay [1] and in assay [2] was > 10 µM (inactive) each time.

In the case of `COC(=O)C1CCC(=O)C(Sc2ccccc2)C1` (configuration not stated), the GI50 in assay [3], in assay [4], in assay [5], in assay [6], in assay [7] and in assay [8] was > 100 µM (inactive) in each case.

Turning to `COc1ccc(Nc2nc(N)c(C(=O)c3c[nH]c4ccccc34)s2)cc1`, the GI50 in assay [1] was 1.03 µM (active); in assay [2] it was 1 µM (active).

With `COc1nc2c(N3CCCC3)nc(N3CCNCC3)nc2nc1NCc1ccccc1`, the GI50 in assay [1] is 1.76 µM (inactive); in assay [2], 4.17 µM (inactive).

Regarding `CN(C)CC(CO)(CN(C)C)CN(C)C`, the GI50 in assay [1] and in assay [2] was > 100 µM (inactive) each time.

Take `N/C(=N\O)N/N=C/c1cc2c(cc1Cl)OCO2`: the GI50 is 18.6 µM (inactive) in assay [3]; 56.2 µM (inactive) in assay [4]; 35.8 µM (inactive) in assay [5]; 22.3 µM (inactive) in assay [1]; 18 µM (inactive) in assay [2]; > 68.2 µM (inactive) in assay [7].

In the case of `CC1(CO)COS(=O)OC1` (configuration not stated), the GI50 in assay [1] and in assay [2] was > 100 µM (inactive) each time.

Consider `c1ccc(/N=C(\N2CCCCC2)N(CCN2CCCCC2)c2ccccc2)cc1`, for which the GI50 in assay [2] was 1.65 µM (inactive).

For `CC1=NC(=O)CNN1C1=NNC2(C(=O)N1)c1ccccc1-c1ccccc12`, the GI50 in assay [1] and in assay [2] was > 100 µM (inactive) each time.

Consider `O=C(CCCN1CCC(C(O)c2ccc(F)cc2)CC1)c1ccc(F)cc1` (configuration not stated), for which the GI50 in assay [3] is 63.5 µM (inactive); in assay [4], 66.8 µM (inactive); in assay [5], 41.7 µM (inactive); in assay [1], 64.9 µM (inactive); in assay [2] it was 66.5 µM (inactive); in assay [7] it was 56.9 µM (inactive). Further, the GI50 in assay [8] is 4.46 µM (inactive).

As to `CC(C)CNc1nc2ncnc(N)c2[nH]1`, the GI50 in assay [1] and in assay [2] was > 100 µM (inactive) each time.

`N=C(N)NCC(N)C(=O)O` (configuration not stated): the GI50 in assay [1] and in assay [2] was > 100 µM (inactive) in each case.

On to `O=C1c2ccccc2C2(c3ccc(Cl)cc3)N[C@H]3CCCC[C@@H]3N12` (some centres not stated), for which, in assay [2], the GI50 is 63 µM (inactive).

As to `Cc1c2cc[n+](C)cc2c(C)c2c1[nH]c1ccccc12`, the GI50 in assay [3] is 1.64 µM (inactive); in assay [4], 2.91 µM (inactive); in assay [1], 2.44 µM (inactive); in assay [8], 0.608 µM (active).

Regarding `O=C(O)C(=C\c1ccc2c(c1)OCO2)/C(=C/c1ccc2c(c1)OCO2)C(=O)O`, the GI50 in assay [1] and in assay [2] was > 100 µM (inactive) in each case.

As for `CN(c1ccc(C(=O)c2ccc(N(C)S(C)(=O)=O)cc2)cc1)S(C)(=O)=O`, the values for the GI50 in assay [5], in assay [6] and in assay [7] were > 100 µM (inactive), 42.4 µM (inactive) and > 100 µM (inactive), respectively.

`COc1cccc(/C=C2/S/C(=N/Nc3nc(C)c(C(C)=O)s3)NC2=O)c1O`: the GI50 in assay [1] was 32.6 µM (inactive); in assay [2] it was 33.8 µM (inactive).

In the case of `Oc1cccc(-c2nc3ccccc3s2)c1`, the GI50 in assay [1] is 16.4 µM (inactive); in assay [2] it was 21.9 µM (inactive).

In the case of `N[C@]1(C(=O)O)C[C@@H]2C(Br)=NO[C@@H]2C1`, the GI50 in assay [1] and in assay [2] was > 100 µM (inactive) each time.

As for `Cc1c2oc3c(C)ccc(C(=O)NC4C(=O)NC(C(C)O)C(=O)N5CCCC5C(=O)N(C)CC(=O)N(C)C(C(C)C)C(=O)OC4C)c3nc-2c(C(=O)NC2C(=O)NC(C(C)O)C(=O)N3CCCC3C(=O)N(C)CC(=O)N(C)C(C(C)C)C(=O)OC2C)c(N)c1=O` (configuration not stated) (I: TTP[Sar][NMeV] / II: TTP[Sar][NMeV]; ester I:1-I:C, II:1-II:C; linker I:N-II:N via Actinocin(9to1); configuration not given here), the GI50 is 0.0507 µM (active) in assay [1] and > 100 µM (inactive) in assay [2].

As for `O=c1[nH]cnc2c(COCCCO)c[nH]c12`, the GI50 in assay [4], in assay [5], in assay [6] and in assay [7] was > 100 µM (inactive) in each case.

Regarding `CCN(CC)CCn1nc2c3c(c(NCCN)ccc31)Sc1cc(O)ccc1-2`, the GI50 is 0.417 µM (active) in assay [3]; 1.62 µM (inactive) in assay [4]; 0.178 µM (active) in assay [6]; 0.877 µM (active) in assay [7]; 0.128 µM (active) in assay [8].

With `Cc1ccc(O)c(C(c2ccc([N+](=O)[O-])cc2)c2cc(C)ccc2O)c1`, the GI50 in assay [1] was 4.98 µM (inactive); in assay [2], 10.7 µM (inactive).

In the case of `O=C1OC(c2ccccc2)=N/C1=C\c1ccccc1`, the GI50 was 48.4 µM (inactive) and 96.6 µM (inactive) in assay [1]; 29.2 µM (inactive) and 40.7 µM (inactive) in assay [2].

`N#CCCN(CCN(CCC#N)C(=O)Nc1ccccc1)C(=O)Nc1ccccc1`: the GI50 was > 100 µM (inactive) in assay [1] and 72.6 µM (inactive) in assay [2].

For the compound `COC1OC2COC1(OC)C1OC(C)(C)OC21` (configuration not stated), the GI50 in assay [1] and in assay [2] was > 100 µM (inactive) in each case.

Turning to `Nc1ccc2cc(S(=O)(=O)O)cc(O)c2c1/N=N/c1ccc(NC(=O)Nc2ccc(/N=N/c3c(N)ccc4cc(S(=O)(=O)O)cc(O)c34)c(S(=O)(=O)O)c2)cc1S(=O)(=O)O`, the GI50 in assay [3] was > 100 µM (inactive); in assay [4], > 100 µM (inactive); in assay [1] it was > 100 µM (inactive); in assay [2] it was > 100 µM (inactive); in assay [7], 97.7 µM (inactive); in assay [8], > 100 µM (inactive).

`CC1(CO)OC(n2cnc3c(N)ncnc32)C(O)C1O` (configuration not stated): the GI50 in assay [3] is > 10 µM (inactive); in assay [4] it was > 100 µM (inactive); in assay [6], > 100 µM (inactive).

On to `CSC1(C)C(=O)Nc2c(OCc3ccccc3)cc([N+](=O)[O-])cc21` (configuration not stated), for which the GI50 in assay [1] was 14 µM (inactive); in assay [2], 28.4 µM (inactive).

Regarding `Cc1ccccc1NC(=O)CSc1nnc(Cc2ccccc2)o1`, the GI50 in assay [3], in assay [4], in assay [5], in assay [6] and in assay [7] was > 100 µM (inactive) each time.

Turning to `CN(C)CC1CCC/C(=C\c2ccccc2)C1=O` (configuration not stated), the GI50 was 0.575 µM (active) in assay [1] and 10.8 µM (inactive) in assay [2].

As for `Nn1c(S)nnc1COc1cccc(OCc2nnc(S)n2N)c1`, the GI50 in assay [1] was 75 µM (inactive); in assay [2] it was > 100 µM (inactive).

As to `Cc1c2c(cc3c1[nH]c1ccccc13)C(c1ccc(Cl)cc1)=NCC2`, the GI50 was 0.237 µM (active) in assay [3]; 3.99 µM (inactive) in assay [4]; 0.301 µM (active) in assay [5]; 0.236 µM (active) in assay [1]; 0.264 µM (active) in assay [2]; 0.682 µM (active) in assay [7]. Besides, the GI50 in assay [8] was 0.0973 µM (active).

With `CC12C3C4C1C1C2C3C41CO` (configuration not stated), the GI50 in assay [1] and in assay [2] was > 100 µM (inactive) throughout.

Turning to `COc1ccc2c(c1)[n+]([O-])c(C(C)=O)c(C)[n+]2[O-]`, the GI50 in assay [4], in assay [6], in assay [7] and in assay [8] was > 100 µM (inactive) in each case.

As for `CC(C)N(C(=O)C1(O)c2ccccc2C=Cc2ccccc21)C(C)C`, the values for the GI50 in assay [1] and in assay [2] were 17.3 µM (inactive) and 18.2 µM (inactive), respectively.

As for `NN=C(S)Nc1cccc(Cl)c1`, the GI50 was > 100 µM (inactive) in assay [1] and 53.5 µM (inactive) in assay [2].

In the case of `CC1(C)[C@H](C(=O)O)N2C(=O)[C@@H](NS(=O)(=O)c3ccc([N+](=O)[O-])cc3)[C@H]2S1(=O)=O`, the GI50 in assay [1] and in assay [2] was > 100 µM (inactive) in each case.

On to `COc1ccc2nc3cc(Cl)ccc3c(NCCCCCC(=O)NC(COc3ccc4ccc5cccnc5c4n3)COc3ccc4ccc5cccnc5c4n3)c2c1`, for which the GI50 in assay [1] was 2.23 µM (inactive); in assay [2], 26.9 µM (inactive).

For the compound `FC(F)(F)c1ccc2c(c1)nc1n2C(c2c(Cl)cccc2Cl)SC1` (configuration not stated), the GI50 in assay [1] was 15.7 µM (inactive); in assay [2], 21.5 µM (inactive).

For the compound `CC1=C2c3ccccc3N(C(=O)/C=C/C(=O)O)[C@H]2[C@H]2C(=O)OC(=O)[C@H]2C1`, the GI50 in assay [1] and in assay [2] was > 10 µM (inactive) throughout.

On to `CC1(C)OC2OC(COC(=O)C(c3ccccc3)c3ccccc3)C3OC(C)(C)OC3C2O1` (configuration not stated), for which the GI50 in assay [3] is 9.02 µM (inactive); in assay [4], > 10 µM (inactive); in assay [5] it was 50.2 µM (inactive); in assay [6] it was > 10 µM (inactive); in assay [8] it was 14.7 µM (inactive).

Consider `C[N+](C)(C)c1ncnc2c1ncn2C1CC(O)C(CO)O1` (configuration not stated), for which the GI50 in assay [1] and in assay [2] was > 100 µM (inactive) throughout.

`FC(F)(F)c1ccc(/N=N/N2CCCC2)cc1`: the GI50 in assay [1] was > 100 µM (inactive).

Regarding `O=C(CCC(NC(=O)OCc1ccccc1)C(=O)OCc1ccccc1)Nc1cccc(OCc2ccccc2)c1` (configuration not stated), the GI50 in assay [1] is 20.7 µM (inactive); in assay [2], 36.2 µM (inactive).

Regarding `CCNC(=S)N/N=C/c1ccccn1`, the GI50 is 3.27 µM (inactive) in assay [1] and 6.95 µM (inactive) in assay [2].

Regarding `Cn1c(=O)c2[nH]c(/N=N/N3CCN(CCO)CC3)nc2n(C)c1=O`, the GI50 is > 100 µM (inactive) in assay [1] and 67 µM (inactive) in assay [2].
